Here are results for eight compounds from patent US8481725B2, “Cycloalkylcarbonylamino acid derivative and process for producing the same” (Seikagaku Corporation, priority 2006, dated 2013).

Starred links: 1 amine or outer side, 2 acyl side, 3 side chain; linkers in the order of their positions; H or OH if unused. Non-standard residues stand in square brackets, D forms with d. Residues, ends and D or L forms follow the SMILES beside them. *: point of attachment. Ac6c = NC1(C(=O)O)CCCCC1; Morpholide = C1CN(*)CCO1; Nle = CCCC[C@H](N)C(=O)O; Cbz = O=C(OCc1ccccc1)*; CO = O=C([*:1])[*:2]

Assay type in all cases: biochemical
One experiment addresses T1, Cathepsin K (Oryctolagus cuniculus, UniProt P43236).
T1 construct: Active enzyme was produced by expressing cathepsin K in the form of a proenzyme; made in house; host or cells: Sf21 insect cells (baculovirus expression system)
T1 sequence (P43236 115-329): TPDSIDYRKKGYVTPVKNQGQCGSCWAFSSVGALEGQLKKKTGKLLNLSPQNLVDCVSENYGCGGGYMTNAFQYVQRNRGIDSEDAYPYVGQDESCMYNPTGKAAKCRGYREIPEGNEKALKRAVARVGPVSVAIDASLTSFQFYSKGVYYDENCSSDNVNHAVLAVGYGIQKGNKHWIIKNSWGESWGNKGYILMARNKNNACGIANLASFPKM
The experiment can be described thus: Measurement of cathepsin K inhibitory activity (fluorescent substrate Z-Gly-Pro-Arg-MCA). The note with it: pH 6.0, 37° C., 30 minutes. The procedure:
Active enzyme was produced by expressing cathepsin K in the form of a proenzyme in a cell culture from a baculovirus expression system using Sf21 insect cells, followed by incubating for 1 hour at 40° C.^1). Cathepsin K activity was measured based on decomposition of the fluorescent substrate Z-Gly-Pro-Arg-MCA (Peptide Institute, Inc.) in compliance with the method of Aibe, et al.^2). Namely, the decomposition of […] Z-Gly-Pro-Arg-MCA by cathepsin K was measured in 100 mM sodium/potassium phosphate, 1 mM EDTA and 8 mM cysteine at pH 6.0. The reaction was carried out for 30 minutes at 37° C., and stopped by the addition of 2×10^−5 M Calpeptin. After stopping the reaction, fluorescent intensity was measured at an excitation wavelength of 355 nm and measurement wavelength of 460 nm. Inhibition of cathepsin K by the compounds was examined using the reaction system described above.

Another experiment addresses T2, Human cathepsin B (Homo sapiens, UniProt P07858).
T2 construct: purchased Calbiochem Corp
Kind of experiment: Measurement of cathepsin B inhibitory activity (fluorescent substrate Z-Arg-Arg-MCA). The note with it: for IC50: pH 6.0, 30° C., 30 minutes; for B/K (ratio of IC50 cathepsin B to IC50 cathepsin K): selectivity ratio B/K. The procedure:
(§1) Human cathepsin B (Calbiochem Corp.) was used for measurement. Activity was measured based on decomposition of the fluorescent substrate Z-Arg-Arg-MCA (Peptide Institute, Inc.) in compliance with the method of Barrett, et al.^3). Namely, the decomposition of 20 mM Z-Arg-Arg-MCA by cathepsin B was measured in 100 mM sodium/potassium phosphate, 1 mM EDTA, 8 mM cysteine and 0.005% Brij35 at pH 6.0. The reaction was carried out for 30 minutes at 30° C., and stopped by the addition of 2×10^−5 M Calpeptin. After stopping the reaction, fluorescent intensity was measured at an excitation wavelength of 355 nm and measurement wavelength of 460 nm. Inhibition of cathepsin B by the compounds was examined using the reaction system described above.

Another experiment concerns the target T3, Human cathepsin L (Homo sapiens, UniProt P07711).
T3 construct: purchased Calbiochem Corp
The experiment can be described thus: Measurement of cathepsin L inhibitory activity (fluorescent substrate Z-Phe-Arg-MCA). The conditions noted are these: for IC50: pH 5.5, 30° C., 30 minutes; for L/K (ratio of IC50 cathepsin L to IC50 cathepsin K): selectivity ratio L/K. The procedure:
as §1, with “cathepsin L” for “cathepsin B”, “substrate Z-Phe-Arg-MCA” for “substrate Z-Arg-Arg-MCA”, “[…] Z-Phe-Arg-MCA” for “mM Z-Arg-Arg-MCA”, “mM sodium acetate, 5” for “mM sodium/potassium phosphate, 1”, “EDTA, 4 mM urea,” for “EDTA,”, “pH 5.5.” for “pH 6.0.”

T3 sequence (P07711 114-333): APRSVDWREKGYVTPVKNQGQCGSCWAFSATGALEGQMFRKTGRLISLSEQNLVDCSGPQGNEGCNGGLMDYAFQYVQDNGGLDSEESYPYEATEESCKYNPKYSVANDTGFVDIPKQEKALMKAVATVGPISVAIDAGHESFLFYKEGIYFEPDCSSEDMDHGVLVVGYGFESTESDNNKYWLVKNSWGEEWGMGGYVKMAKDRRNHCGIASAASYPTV

For the compound `CC(C)[C@@H](C=O)NC(=O)C1(NC(=O)OCc2ccccc2)CCCCC1` [Reference Example 189, N-[[1-[[(Phenylmethoxy)carbonyl]amino]cyclohexyl]carbonyl]-L-valinal] (Cbz-[Ac6c]-Val-aldehyde), at Cathepsin K, the IC50 amounted to 1.7 nM. At Human cathepsin B, the IC50 is 390 nM and the “B/K (ratio of IC50 cathepsin B to IC50 cathepsin K)” value is on record as 230. Also, at Human cathepsin L, inhibition was half-maximal at 680 nM (IC50) and the “L/K (ratio of IC50 cathepsin L to IC50 cathepsin K)” value came to 400.

In turn, `CCCC[C@@H](C=O)NC(=O)C1(NC(=O)OCc2ccccc2)CCCCC1` [Reference Example 190, N-[[1-[[(Phenylmethoxy)carbonyl]amino]cyclohexyl]carbonyl]-L-norleucinal] (Cbz-[Ac6c]-[Nle]-aldehyde) showed an IC50 against Cathepsin K of 4 nM. Besides, on Human cathepsin B, inhibition was half-maximal at 140 nM (IC50) and the “B/K (ratio of IC50 cathepsin B to IC50 cathepsin K)” value was 35. In addition, at Human cathepsin L, inhibition was half-maximal at 200 nM (IC50) and the “L/K (ratio of IC50 cathepsin L to IC50 cathepsin K)” value amounted to 50.

Compound `CC(C)[C@@H](C=O)NC(=O)C1(NC(=O)c2ccco2)CCCCC1` [Reference Example 191, N-[[1-[(2-Furanylcarbonyl)amino]cyclohexyl]carbonyl]-L-valinal] displayed an IC50 on Cathepsin K of 0.54 nM. In addition, on Human cathepsin B, it took 47 nM to reach half-maximal inhibition (IC50) and the “B/K (ratio of IC50 cathepsin B to IC50 cathepsin K)” value was found to be 87. Moreover, on Human cathepsin L, the IC50 amounted to 200 nM and the “L/K (ratio of IC50 cathepsin L to IC50 cathepsin K)” value came out at 370.

`CCCC[C@@H](C=O)NC(=O)C1(NC(=O)N2CCOCC2)CCCCC1` [Reference Example 192, N-[[1-[(4-Morpholinylcarbonyl)amino]cyclohexyl]carbonyl]-L-norleucinal] ({Morpholide-CO}-[Ac6c]-[Nle]-aldehyde): the values for the IC50 against Cathepsin K, against Human cathepsin B and against Human cathepsin L were 22 nM, 260 nM and 470 nM, respectively. Also, the “B/K (ratio of IC50 cathepsin B to IC50 cathepsin K)” value on Human cathepsin B was found to be 12. In addition, the “L/K (ratio of IC50 cathepsin L to IC50 cathepsin K)” value at Human cathepsin L is listed as 21.

`CC(C)C[C@H](NC(=O)OCc1ccccc1)C(=O)N[C@H](C=O)C(C)C` [Reference Example 193, N—[N-[(Phenylmethoxy)carbonyl]-L-leucyl]-L-valinal] (Cbz-Leu-Val-aldehyde): the IC50 at Cathepsin K is 1.9 nM. Also, at Human cathepsin B, the IC50 is 110 nM and the “B/K (ratio of IC50 cathepsin B to IC50 cathepsin K)” value is 58. Besides, on Human cathepsin L, the midpoint of inhibition, the IC50, lay at 140 nM and the “L/K (ratio of IC50 cathepsin L to IC50 cathepsin K)” value is on record as 74.

With `CCCC[C@@H](C=O)NC(=O)[C@H](CC(C)C)NC(=O)OCc1ccccc1` [Reference Example 194, N—[N-[(Phenylmethoxy)carbonyl]-L-leucyl]-L-norleucinal], the figures for the IC50 against Cathepsin K, against Human cathepsin B and against Human cathepsin L were 3.5 nM, 40 nM and 53 nM, respectively. Moreover, the “B/K (ratio of IC50 cathepsin B to IC50 cathepsin K)” value at Human cathepsin B was 11. Besides, the “L/K (ratio of IC50 cathepsin L to IC50 cathepsin K)” value on Human cathepsin L is 15.

Turning to `CCCC[C@@H](C=O)NC(=O)[C@H](CC(C)C)NC(=O)N1CCOCC1` [Reference Example 195, N—[N-(4-Morpholinylcarbonyl)-L-leucyl]-L-norleucinal], on Cathepsin K, the IC50 was 3 nM. On Human cathepsin B, the midpoint of inhibition, the IC50, lay at 13 nM and the “B/K (ratio of IC50 cathepsin B to IC50 cathepsin K)” value is reported as 4.3. For the same compound, on Human cathepsin L, the half-maximal inhibitory concentration (IC50) worked out at 22 nM and the “L/K (ratio of IC50 cathepsin L to IC50 cathepsin K)” value is on record as 7.3.

On to `CC(C)C[C@H](NC(=O)c1ccco1)C(=O)N[C@H](C=O)C(C)C` [Reference Example 196, N—[N-(2-Furanylcarbonyl)-L-leucyl]-L-valinal], for which the IC50 was 1.9 nM against Cathepsin K, 57 nM against Human cathepsin B and 67 nM against Human cathepsin L. Moreover, the “B/K (ratio of IC50 cathepsin B to IC50 cathepsin K)” value on Human cathepsin B was 30. Further, the “L/K (ratio of IC50 cathepsin L to IC50 cathepsin K)” value on Human cathepsin L is 35.

Broadly, the IC50 is the point on the concentration scale where inhibition reaches its midpoint. A low value points to higher potency.
